Measured values taken from patent US20050288265A1, “Novel combination of glucocorticoids and pde-4 inhibitors for treating respiratory diseases, allegic diseases, asthma and copd” (priority 2002, published 2005).
Where two headings read alike, the source gives them in different places.

Tests used:
[1] = system: GM-CSF release from LPS-stimulated monocytes; experiment: Inhibition of GM-CSF release from LPS-stimulated monocytes; format: cell-based, human; conditions: for IC50: Homo sapiens, Monocyte
Protocol: Inhibition of GM-CSF Release from LPS-Stimulated Monocytes EDTAized human whole blood was mixed with Hanks' buffer in the ratio 1:1. Histopaque 1077 solution (15 ml) was cautiously overlaid with max. 40 ml of the blood: Hanks' mixture and centrifuged (2000 rpm) at room temperature for 30 min. The band enriched with leukocytes was aspirated off, washed twice with Hanks' buffer and transferred into RPMI 1640 medium with Glutamax I (Gibco BRL, Eggenstein). The monocytes were removed through their adherence to the cell culture bottle over a period of two hours. The cells were then thoroughly washed with medium in order to remove non-adherent cells. […] The cells were preincubated with the stated test substances for 30 minutes. LPS was then added, and incubation was continued for a period of 24 h. The supernatants were aspirated off and investigated by ELISA. The amount of secreted human GM-CSF in the cell culture supernatants was determined by using an OptEIA™ human GM-CSF ELISA test (Pharmingen, San Diego). It was carried out in microtiter plates. Anti-human monoclonal antibodies were coupled as antibodies to the plate at 4° C. overnight. This coating and three washes were followed by saturation of nonspecific bindings by means of assay diluent solution™ (PBS with 10% FCS, pH 7.0) (Pharmingen, San Diego) at RT for 1 h. This was followed by incubation with the samples and the standard (recombinant human GM-CSF) at 4° C. overnight. […] All the steps were followed by washing 5 or 7 times with PBS/0.05% Tween 20. The enzyme activity was determined using substrate solution™ (tetramethylbenzidine (TMB) and hydrogen peroxide, Pharmingen, San Diego) as substrate at RT for 30 min. The enzyme-substrate reaction was stopped with 1M phosphoric acid, and the extinction at 450 nm was measured.

[2] = system: TNF release from LPS-stimulated monocytes; experiment: Inhibition of TNF release from LPS-stimulated monocytes; format: cell-based, human; conditions: for IC50: Homo sapiens, Monocyte, substance alone, LPS-stimulated monocytes
Protocol: EDTAized human whole blood was mixed with Hanks' buffer in the ratio 1:1. Histopaque 1077 solution (15 ml) was cautiously overlaid with max. 40 ml of the blood: Hanks' mixture and centrifuged (2000 rpm) at room temperature for 30 min. The band enriched with leukocytes was aspirated off, washed twice with Hanks' buffer and transferred into RPMI 1640 medium with Glutamax I (Gibco BRL, Eggenstein). The monocytes were removed through their adherence to the cell culture bottle over a period of two hours. The cells were then thoroughly washed with medium in order to remove non-adherent cells. The resulting monocytes were cultured in RPMI 1640 medium with 10% heat-inactivated fetal calf's serum (FCS) and 100 U/ml penicillin and 100 μg/ml streptomycin in a CO2 incubator (5% CO2, 96% relative humidity, 37° C.).
Primary monocytes were seeded in 24-well plates at 5×10^5 cells/well. The cells were preincubated with the stated test substances for 30 minutes. LPS was then added, and incubation was continued for a period of 24 h. The supernatants were aspirated off and investigated by ELISA.

[3] = substance alone, LPS-stimulated primary monocytes, 24 h, read-out: IC50 for GM-CSF release from human monocytes
[4] = when 10 nM loteprednol was given simultaneously

| IC50 ([1]; addition of 10 nM loteprednol, read-out: IC50 for DFHO for GM-CSF release in the presence of loteprednol) [nM] | IC50 [1, 3] [nM] | reduction in the IC50 for GM-CSF release [1, 4] [%] | IC50 [2] [nM] | reduction in the IC50 for TNF release [2, 4] [%] | IC50 ([1]; addition of 5 nM DFHO, read-out: IC50 for loteprednol for GM-CSF release in the presence of DFHO) [nM] | reduction in the IC50 for GM-CSF release ([1]; when 5 nM DFHO was given) [%] | reduction in the IC50 for TNF release ([2]; when 5 nM DFHO was given) [%] | SMILES |
| --- | --- | --- | --- | --- | --- | --- | --- | --- |
| 60 | 3200 | 98 | 5700 | 99 | – | – | – | O=C(Nc1c(Cl)cncc1Cl)C(=O)c1cn(Cc2ccc(F)cc2)c2ccc(O)cc12 [DFHO, N-(3,5-dichloropyridin-4-yl)-2-[1-(4-fluoro-benzyl)-5-hydroxyindol-3-yl]-2-oxoacetamide] |
| – | 53.7 | – | 85.5 | – | 13.4 | 75 | 65 | CCOC(=O)O[C@]1(C(=O)OCCl)CC[C@H]2[C@@H]3CCC4=CC(=O)C=C[C@]4(C)[C@H]3[C@@H](O)C[C@@]21C [loteprednol] |
